The results in this text go back to publication PMC9241669, “Allantodapsone is a Pan-Inhibitor of Staphylococcus aureus Adhesion to Fibrinogen, Loricrin, and Cytokeratin 10” (Microbiology Spectrum, 2022).

Values joined by “and” are separate entries in the source; they are usually repeats but may differ in a detail not shown here. Identical values can stand only once. Like-named read-outs stand apart in the source and are kept apart here.

In one assay the test system is S. aureus SH1000. Briefly: Adhesion of S. aureus SH1000 to immobilized fibrinogen (crystal violet). Type of assay: cell-based, Staphylococcus aureus. The following applies: for IC50: Staphylococcus aureus. Here is the method:
FIG 2 Allantodapsone inhibits S. aureus adhesion to fibrinogen. (A) S. aureus Newman stationary phase and (B) exponential phase. (C) S. aureus SH1000 stationary phase and (D) exponential phase bacteria. Fibrinogen was used to coat plates at 4°C overnight at 10 μg/mL. Wells were washed with PBS and blocked with 1% BSA. Washed bacteria (OD600 of 1) were mixed with the relevant concentration of allantodapsone or vehicle control for 5 min, and added to the wells, incubating for 2 h at 37°C. Adherent cells were washed, fixed, and stained with crystal violet, and wells further washed. The dye was dissolved in acetic acid and the absorbance measured at 570 nm. Compounds were screened at a concentration of 70 μM and compared to their vehicle control. Statistical analysis was carried out using repeated measures ANOVA followed by multiple comparisons Dunnett’s tests using GraphPad PRISM. **, P ≤ 0.01; ***, P ≤ 0.001; ****, P ≤ 0.0001 (n = 3).
Adhesion assays were carried out according to Hartford et al. ([37]). Briefly, plates were coated with 10 μg/mL fibrinogen (Calbiochem, Darmstadt, Germany) or 20 μg/mL fibronectin (Sigma-Aldrich, Ireland) for 2 h at 37°C or for 16 h at 4°C. Plates were blocked with 1% BSA at 37°C for 1 h and washed 3 times in PBS. Washed bacteria were incubated at 37°C for 2 h. Adherent bacteria were washed three times in PBS and fixed in 5–9% formaldehyde at room temperature for 30 min. Wells were washed three times in PBS and stained using 5% crystal violet for 20 min. Wells were washed three times in PBS, and the crystal violet solubilized using 5% acetic acid. Plates were read at 570 nm on a Wallac Victor2, (Shelton, CT, USA). The minimum adhesion inhibitory concentration (MAIC) was determined as the concentration inhibiting greater than 90% bacterial adhesion.
Compounds were added to the bacterial suspension prior to addition to the wells. In each experiment, vehicle controls were prepared using the same volume of vehicle for the matching test compound.

The next assay concerns L. lactis ClfA. Briefly: Adhesion of L. lactis ClfA to immobilized fibrinogen. It counts as cell-based, Lactococcus lactis. As to the method: FIG 1 Allantodapsone inhibits S. aureus Newman adhesion to fibrinogen. Dose response curves for S. aureus Newman (A), L. lactis ClfA (B), and L. lactis ClfB (C) adhesion to fibrinogen. Fibrinogen was used to coat plates at 4°C overnight at 10 μg/mL. Wells were washed with PBS and blocked with 1% BSA. Washed bacteria (OD600 of 1) were mixed with the relevant concentration of allantodapsone or vehicle control (DMSO) for 5 min, and added to the wells, incubating for 2 h at 37°C. Adherent cells were washed, fixed, and stained with crystal violet, and wells further washed. The dye was dissolved in acetic acid and the absorbance measured at 570 nm. IC50 values were generated using GraphPad Prism 9.0 GraphPad software, San Diego, CA. Data are representative of three experiments with error presented as SEM.
Adhesion assays were carried out according to Hartford et al. ([37]). Briefly, plates were coated with 10 μg/mL fibrinogen (Calbiochem, Darmstadt, Germany) or 20 μg/mL fibronectin (Sigma-Aldrich, Ireland) for 2 h at 37°C or for 16 h at 4°C. Plates were blocked with 1% BSA at 37°C for 1 h and washed 3 times in PBS. Washed bacteria were incubated at 37°C for 2 h. […] Plates were read at 570 nm on a Wallac Victor2, (Shelton, CT, USA). The minimum adhesion inhibitory concentration (MAIC) was determined as the concentration inhibiting greater than 90% bacterial adhesion. […]

On to `Nc1ccc(S(=O)(=O)c2ccc(NCN3C(=O)NC(=O)C(=O)C3=O)cc2)cc1` [Allantodapsone], for which the “inhibition of adhesion to fibrinogen” value in the assay with S. aureus SH1000 (S. aureus SH1000, stationary and exponential phase, compounds screened at 70 μM (Fig. 2)) is recorded as “inhibited”. Besides, the 50% inhibitory concentration (IC50) with S. aureus SH1000 (SH1000, read-out: IC50, inhibition of adhesion to fibrinogen, S. aureus SH1000 exponential phase) was found to be 15.6 µM; in the assay with S. aureus SH1000 (SH1000, read-out: IC50, inhibition of adhesion to fibrinogen, S. aureus SH1000 stationary phase) it was 7.6 µM; in the assay with L. lactis ClfA (Lactococcus lactis, read-out: IC50, inhibition of adhesion to fibrinogen), 3.8 µM. Also, in the assay on L. lactis ClfA (L. lactis ClfA, fibrinogen), the “minimum adhesion inhibitory concentration (MAIC)” value was 10 μM and 4.0 μg/mL.

As usually defined, the IC50 is the concentration that gives 50% inhibition.
